Assay results: US20260226026A1, “COMPOUND AS CTPS1 INHIBITOR” (Hangzhou Innogate Pharma Co., Ltd., priority 2023, published 2026)
Where two headings read alike, the source gives them in different places.

Legend:
Jurkat cells = assay: Inhibition of Jurkat cell proliferation (CellTiter-Glo, 72 hours); type: cell-based; settings: Homo sapiens
Experimental: Select Jurkat cells in good growth condition and digest them with trypsin. Add fresh culture medium, mix thoroughly, and centrifuge at 1000 rpm for 5 minutes. Seed the cells into a 96-well plate at a density of 10,000 cells per well, and incubate overnight in a 37° C. incubator. On the following day, take out of the culture plate and treat the cells with compounds prepared in a five-fold serial dilution. Return the plate to the 37° C. incubator and continue incubation for 72 hours.
After incubation, bring out the cell culture plate and equilibrate it to room temperature. Add 100 μL of CellTiter-Glo reagent to each well, shake in the dark for 2 minutes, and incubate for 10 minutes. Measure the luminescence using an Enspire plate reader. Calculate the inhibition rate using the following formula: Inhibition rate (%)=(1−(RLU_compound−RLU_blank)/(RLU_DMSO−RLU_blank))×100%. Plot the dose-response curve and calculate the IC50 value using XLFit.

in vivo = assay: in vivo; design: species or system SD rats; settings: male, SD, rat, po, 3 mg/kg
Experimental: Instrumentation: SCIEX Triple Quad 6500+ triple quadrupole liquid chromatography-mass spectrometry system (LC-MS/MS), operating software is Analyst 1.7.2 (Applied Biosystems, USA); ExionLC liquid chromatography system; Microsoft Excel was used for data calculation and processing. Pharmacokinetic parameters were calculated using the statistical moment method with WinNonlin 8.2 software. Key kinetic parameters included Tmax, T1/2, Cmax, AUC0-24 h etc. Column: Synergi 4 μm Fusion-RP 80 Å Luna C18 2 mm*50 mm, 4 μm; Column temperature: 40° C.; Mobile phase A: Water (0.1% formic acid); Mobile phase B: Acetonitrile; Flow rate: 0.8 mL/min; Gradient elution is adopted, the elution gradient is 0.10 min: 15% B; 1.60 min: 95% B; 1.90 min: 95% B; 1.91 min: 15% B; 2.20 min: 15% B. Injection volume: 1 μL.
Animals: 3 male SD rats with a weight range of 200-220 g were purchased and kept in the laboratory of the Experimental Animal Center for 3 days and then used. They were fasted for 12 hours predose and 4 hours after dosing. Drinking water was free during the test. After the rats were gavage, blood samples were taken according to the established time point.
Solvent: 0.4% ethanol+0.4% Tween80+99.2% (0.5% methylcellulose M450). Preparation of the solution for intragastric administration: Compounds were accurately weighed and added to the solvent. The mixture was then subjected to vortex mixing and sonication until a homogeneous suspension was achieved, thereby preparing medicinal solutions of the desired concentrations.
Compound samples: Typically, multiple structurally analogous compounds (with molecular weights differing by more than 2 units) were accurately weighed and administered together (cassette PK). This approach allows for the simultaneous screening of multiple compounds and comparison of their oral absorption rates. Single compound administration was also employed to study the pharmacokinetics of drug samples in rats.
After intragastric administration, blood was collected from the jugular vein at 0.25, 0.5, 1, 2, 4, 8, 10 and 24 hours. Transfer 20 μL of plasma sample (for blank samples and internal standard blank samples, add 20 μL of blank plasma) to a 1.5 mL centrifuge tube, add 200 μL of internal standard solution (50% methanol in acetonitrile (concentration 100 ng/mL)) (for Double blank samples, add 200 μL of 50% methanol in acetonitrile solution). Vortex the samples for 5 minutes, then centrifuge at 14000 rpm and 4° C. for 5 minutes. Transfer 80 μL and add to 80 μL of water, mix uniformly, and submit for LC-MS/MS analysis.
The compounds were accurately weighed to prepare different concentrations, and quantitative analysis on mass spectrometry was performed to establish a standard curve, and then the concentration of the above-mentioned compound in the plasma was tested to obtain its concentration at different time points. All measurement data were collected and processed by relevant software, and the statistical moment method was used to calculate the pharmacokinetic parameters (mainly including kinetic parameters Tmax, T1/2, Cmax, AUC0-24 h etc).

hCTPS1 enzyme = target: T1, hCTPS1 enzyme (Homo sapiens, UniProt P17812); assay: Inhibition of CTPS1 enzyme activity (ADP-Glo method); type: biochemical; settings: hCTPS1, 90 min reaction at 25° C.
T1 sequence (P17812 1-591): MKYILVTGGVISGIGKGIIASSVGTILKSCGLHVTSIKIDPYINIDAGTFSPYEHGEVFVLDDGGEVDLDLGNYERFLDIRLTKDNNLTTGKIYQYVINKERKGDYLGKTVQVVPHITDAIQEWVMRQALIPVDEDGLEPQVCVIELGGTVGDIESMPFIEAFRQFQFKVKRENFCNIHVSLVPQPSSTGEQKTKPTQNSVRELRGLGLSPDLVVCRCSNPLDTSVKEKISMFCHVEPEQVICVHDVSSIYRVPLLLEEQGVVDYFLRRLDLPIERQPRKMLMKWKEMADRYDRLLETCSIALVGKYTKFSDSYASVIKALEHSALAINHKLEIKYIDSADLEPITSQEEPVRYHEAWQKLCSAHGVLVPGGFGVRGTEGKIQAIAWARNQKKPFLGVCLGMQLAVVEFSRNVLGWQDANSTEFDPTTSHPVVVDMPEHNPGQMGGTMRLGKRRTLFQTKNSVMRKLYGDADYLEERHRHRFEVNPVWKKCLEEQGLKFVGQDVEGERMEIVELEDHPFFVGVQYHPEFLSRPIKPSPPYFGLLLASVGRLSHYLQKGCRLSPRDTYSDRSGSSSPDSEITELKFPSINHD
Experimental: The enzyme activity of CTPS1 was tested using the ADP-Glo method. Compounds were serially diluted in DMSO with 3-fold gradients across ten concentrations. Transfer 0.1 μL of diluted compound to a 384-well plate, centrifuge at 1000 rpm for 1 min. Add 2.5 μL of hCTPS1 enzyme working solution, centrifuge at 1000 rpm for 1 min, and incubate at 25° C. for 10 min. Add 2.5 μL of ATP & UTP solution and incubate at 25° C. for 10 min. Add 5 μL of substrate solution to initiate the reaction and incubate at 25° C. for 90 min. Add 10 μL of ADP-Glo solution to the 384-well plate, centrifuge at 1000 rpm for 1 min, incubate at 25° C. for 40 min, add 20 μL of detection solution, centrifuge at 1000 rpm for 1 min, and incubate at 25° C. for 60 min. […] were read using a BMG microplate reader. Inhibition rate (%) was calculated as follows: Inhibition rate (%)=[(DMSO control well signal−Compound well signal)/(DMSO control well signal−Blank control well signal)]×100%. IC50 values for compounds were analyzed by nonlinear regression in XLFit 5.5.0 software using the formula: Y=Bottom+(Top−Bottom)/(1+10^((LogIC50−X)*HillSlope)) where Y is the inhibition rate and X is the log value of compound concentration.

[1] = Jurkat cells, 72 hours, CellTiter-Glo, read-out: Jurkat (IC50)

Row | SMILES | IC50 (Jurkat cells; [1]) [nM] | AUC(0-t) (in vivo) [ng·h/mL] | Cmax (in vivo) [ng/mL] | Tmax (in vivo) [h] | half-life (in vivo) [h] | IC50 (hCTPS1 enzyme) [nM] | IC50 (Jurkat cells; Jurkat, 72 h, read-out: Jurkat (IC50, nM)) [nM]
1 | CCOc1cncc(-c2ccc(NC(=O)C3(c4ccnc(NS(=O)(=O)C5CC5)n4)CCC(=C(F)F)CC3)nc2)n1 (stereo not drawn) [Compound 1] | < 30 | 68800 | 11300 | 0.83 | 4.98 | < 25 | –
2 | CCOc1cncc(-c2ccc(NC(=O)C3(c4ccnc(NS(=O)(=O)C5CC5)n4)CCC(=C(C)C)CC3)nc2)n1 (stereo not drawn) [Compound 2] | < 50 | – | – | – | – | < 50 | –
3 | CCOc1cncc(-c2ccc(NC(=O)C3(c4ccnc(NS(=O)(=O)C5CC5)n4)CCC(=CC#N)CC3)nc2)n1 (stereo not drawn) [Compound 8] | < 15 | – | – | – | – | < 50 | –
4 | CCOc1cncc(-c2ccc(NC(=O)C3(c4ccnc(NS(=O)(=O)C5CC5)n4)CCC(=CF)CC3)nc2)n1 (stereo not drawn) [Compound 10] | < 30 | 87200 | 9330 | 3.33 | 4.95 | < 25 | –
5 | CCOc1cncc(-c2ccc(NC(=O)C3(c4ccnc(NS(=O)(=O)C5CC5)n4)CCC(=CCN4CCOCC4)CC3)nc2)n1 (stereo not drawn) [Compound 11] | < 15 | – | – | – | – | < 25 | –
6 | CCOc1cncc(-c2ccc(NC(=O)C3(c4ccnc(NS(=O)(=O)C5CC5)n4)CCC(=CCN4CCN(C)CC4)CC3)nc2)n1 (stereo not drawn) [Compound 13] | < 50 | – | – | – | – | < 50 | –
7 | CCOc1cncc(-c2ccc(NC(=O)C3(c4ccnc(NS(=O)(=O)C5CC5)n4)CC(=CC(=O)OC)C3)nc2)n1 (stereo not drawn) [Compound 14] | < 30 | – | – | – | – | < 50 | –
8 | CCOc1cncc(-c2ccc(NC(=O)C3(c4ccnc(NS(=O)(=O)C5CC5)n4)CCC(=CCN(C)C)CC3)nc2)n1 (stereo not drawn) [Compound 15] | – | – | – | – | – | < 100 | < 50
9 | CCOc1cncc(-c2ccc(NC(=O)C3(c4ccnc(NS(=O)(=O)C5CC5)n4)CCC(=CCN4CCCC4)CC3)nc2)n1 (stereo not drawn) [Compound 16] | < 50 | – | – | – | – | < 50 | –
10 | CCOc1cncc(-c2ccc(NC(=O)C3(c4ccnc(NS(=O)(=O)C5CC5)n4)CCC(=CCNC(C)=O)CC3)nc2)n1 (stereo not drawn) [Compound 22] | < 30 | 137 | 177 | 0.25 | 1.64 | < 50 | –
11 | CCOc1cncc(-c2ccc(NC(=O)C3(c4ccnc(NS(=O)(=O)C5CC5)n4)CCC(=CCNS(C)(=O)=O)CC3)nc2)n1 (stereo not drawn) [Compound 23] | < 50 | – | – | – | – | < 50 | –
12 | C=CC(=O)N1CCC(C(=O)Nc2ccc(-c3cncc(OCC)n3)cn2)(c2ccnc(NS(=O)(=O)C3CC3)n2)CC1 [Compound 26] | < 30 | 288 | 118 | 0.5 | 1.84 | < 50 | –
13 | CCOc1cncc(-c2ccc(NC(=O)C3(c4ccnc(NS(=O)(=O)C5CC5)n4)CCC(=CCN4CC(O)C4)CC3)nc2)n1 (stereo not drawn) [Compound 27] | < 100 | – | – | – | – | < 50 | –
14 | CCOc1cncc(-c2ccc(NC(=O)C3(c4ccnc(NS(=O)(=O)C5CC5)n4)CCC(=CCN4CC(OC)C4)CC3)nc2)n1 (stereo not drawn) [Compound 28] | < 15 | 46.7 | 33.1 | 0.25 | 1.8 | < 50 | –
15 | CCOc1cncc(-c2ccc(NC(=O)C3(c4ccnc(NS(=O)(=O)C5CC5)n4)CCC(=CCN(C)CCOC)CC3)nc2)n1 (stereo not drawn) [Compound 29] | < 30 | – | – | – | – | < 100 | –
16 | CCOc1cncc(-c2ccc(NC(=O)C3(c4ccnc(NS(=O)(=O)C5CC5)n4)CCN(C4CC(=C(F)F)C4)CC3)nc2)n1 (stereo not drawn) [Compound 31] | < 50 | – | – | – | – | < 100 | –
17 | CCOc1cncc(-c2ccc(NC(=O)C3(c4ccnc(NS(=O)(=O)C5CC5)n4)CCC(=C(C)F)CC3)nc2)n1 (stereo not drawn) [Compound 37] | < 30 | – | – | – | – | < 25 | –
18 | CCOc1cncc(-c2ccc(NC(=O)C3(c4ccnc(NS(=O)(=O)C5CC5)n4)CCC(=CCCOC)CC3)nc2)n1 (stereo not drawn) [Compound 45] | < 30 | – | – | – | – | < 25 | –
19 | CCOc1cncc(-c2ccc(NC(=O)C3(c4ccnc(NS(=O)(=O)C5CC5)n4)CC(=CC4CCOCC4)C3)nc2)n1 (stereo not drawn) [Compound 48] | < 30 | – | – | – | – | < 100 | –
20 | CCOc1cncc(-c2ccc(NC(=O)C3(c4ccnc(NS(=O)(=O)C5CC5)n4)CCC(=C(F)CN4CCOCC4)CC3)nc2)n1 (stereo not drawn) [Compound 54] | < 50 | – | – | – | – | < 50 | –
21 | CCOc1cncc(-c2ccc(NC(=O)C3(c4ccnc(NS(=O)(=O)C5CC5)n4)CCC(=Cc4cccnc4)CC3)nc2)n1 (stereo not drawn) [Compound 55] | < 50 | – | – | – | – | < 25 | –
22 | CCOc1cncc(-c2ccc(NC(=O)C3(c4ccnc(NS(=O)(=O)C5CC5)n4)CCC(=CC4(C)COC4)CC3)nc2)n1 (stereo not drawn) [Compound 62] | < 15 | – | – | – | – | < 25 | –
23 | CCOc1cncc(-c2ccc(NC(=O)C3(c4ccnc(NS(=O)(=O)C5CC5)n4)CCC(=C(F)CC(C)(C)O)CC3)nc2)n1 (stereo not drawn) [Compound 67] | < 50 | – | – | – | – | < 50 | –
